In ChEMBL document CHEMBL5550194, “Design and synthesis of phosphoryl-substituted steroidal pyridazines (Pho-STPYRs) as potent estrogen receptor alpha inhibitors: targeted treatment of hormone-dependent breast cancer cells” (RSC Med Chem, 2024):
Activity calls are given as the source filed them. The rule behind the calls is not given here.

Key:
MDA-MB-231 = experiment: Antiproliferative activity against human MDA-MB-231 cells assessed as inhibition of cell growth incubated for 72 hrs by MTT assay; assay type: functional, cell-based; details: MDA-MB-231, 72 h
MCF7 [1] = experiment: Antiproliferative activity against human MCF7 cells assessed as inhibition of cell growth incubated for 72 hrs by MTT assay; assay type: functional, cell-based; details: MCF7, 72 h
Aromatase = molecular target: T1, Aromatase (Homo sapiens, UniProt P11511); experiment: Binding affinity to recombinant human CYP19A1 by spectrophotometric titration method; assay type: ADME; details: recombinant enzyme
T1 sequence (P11511 whole entry): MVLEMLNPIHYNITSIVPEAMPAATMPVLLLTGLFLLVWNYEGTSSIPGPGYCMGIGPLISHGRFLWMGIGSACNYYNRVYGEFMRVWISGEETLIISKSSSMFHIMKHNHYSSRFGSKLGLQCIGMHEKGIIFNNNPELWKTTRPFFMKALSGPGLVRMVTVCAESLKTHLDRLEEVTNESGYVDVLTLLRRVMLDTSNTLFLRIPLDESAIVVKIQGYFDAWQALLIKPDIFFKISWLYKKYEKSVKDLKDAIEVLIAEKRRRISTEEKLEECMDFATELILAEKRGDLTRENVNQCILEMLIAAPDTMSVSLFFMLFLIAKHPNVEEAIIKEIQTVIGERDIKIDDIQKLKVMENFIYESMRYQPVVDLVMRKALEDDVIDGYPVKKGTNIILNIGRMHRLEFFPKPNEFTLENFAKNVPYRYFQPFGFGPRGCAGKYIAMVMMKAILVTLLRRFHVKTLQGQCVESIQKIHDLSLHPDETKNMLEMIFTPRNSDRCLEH

Cytochrome P450 7B1 = molecular target: T2, Cytochrome P450 7B1 (Homo sapiens, UniProt O75881); experiment: Binding affinity to recombinant human CYP7B1 by spectrophotometric titration method; assay type: ADME; details: recombinant enzyme
T2 sequence (O75881 whole entry): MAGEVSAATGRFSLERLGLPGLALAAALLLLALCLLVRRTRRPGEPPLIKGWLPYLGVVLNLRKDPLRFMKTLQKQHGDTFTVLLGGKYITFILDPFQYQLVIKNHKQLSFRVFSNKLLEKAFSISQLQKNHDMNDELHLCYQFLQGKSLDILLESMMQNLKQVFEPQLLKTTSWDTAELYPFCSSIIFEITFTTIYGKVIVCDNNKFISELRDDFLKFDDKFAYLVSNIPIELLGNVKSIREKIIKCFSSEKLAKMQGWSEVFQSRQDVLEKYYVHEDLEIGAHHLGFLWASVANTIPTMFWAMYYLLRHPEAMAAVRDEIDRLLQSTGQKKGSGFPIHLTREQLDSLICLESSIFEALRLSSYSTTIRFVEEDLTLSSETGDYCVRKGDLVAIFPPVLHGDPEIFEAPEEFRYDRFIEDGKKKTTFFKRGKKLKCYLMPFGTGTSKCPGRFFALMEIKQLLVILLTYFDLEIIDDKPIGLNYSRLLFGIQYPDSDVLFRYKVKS

MCF7 [2] = experiment: Anti-estrogenic activity in human MCF7 cells assessed as reduction in GREB1 protein expression at 1.7 to 15 uM measured after 48 hrs by immunoblot analysis; assay type: functional, cell-based; details: dose 1.7-15 µM
MCF7 [3] = experiment: Downregulation of CDK4 protein expression in human MCF7 cells at 1.7 to 15 uM measured after 48 hrs by immunoblot analysis; assay type: functional, cell-based; details: dose 1.7-15 µM
MCF7 [4] = experiment: Effect on activated AKT protein level in human MCF7 cells at 1.7 to 15 uM measured after 48 hrs by immunoblot analysis; assay type: functional, cell-based; details: dose 1.7-15 µM
MCF7 [5] = experiment: Induction of cell death in human MCF7 cells assessed as accumulation of cleaved PARP level at 1.7 to 15 uM measured after 48 hrs by immunoblot analysis; assay type: functional, cell-based; details: dose 1.7-15 µM
Steroid 21-hydroxylase = molecular target: T3, Steroid 21-hydroxylase (Homo sapiens, UniProt P08686); experiment: Binding affinity to recombinant human CYP21A2 by spectrophotometric titration method; assay type: ADME; details: recombinant enzyme
T3 sequence (P08686 whole entry): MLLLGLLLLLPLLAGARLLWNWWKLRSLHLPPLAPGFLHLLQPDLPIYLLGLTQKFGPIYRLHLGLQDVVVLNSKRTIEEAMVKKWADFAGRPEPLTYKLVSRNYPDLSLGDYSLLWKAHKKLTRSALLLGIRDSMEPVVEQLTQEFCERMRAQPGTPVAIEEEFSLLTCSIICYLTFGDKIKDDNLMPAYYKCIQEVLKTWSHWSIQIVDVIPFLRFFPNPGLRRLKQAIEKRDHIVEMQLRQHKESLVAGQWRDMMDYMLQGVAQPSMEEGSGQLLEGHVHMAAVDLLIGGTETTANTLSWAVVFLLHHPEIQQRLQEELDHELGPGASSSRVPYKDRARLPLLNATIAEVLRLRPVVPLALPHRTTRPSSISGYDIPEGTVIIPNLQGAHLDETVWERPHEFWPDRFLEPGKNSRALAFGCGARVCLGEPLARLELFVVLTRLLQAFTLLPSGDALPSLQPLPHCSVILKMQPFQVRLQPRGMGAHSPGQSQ

MCF7 [6] = experiment: Anti-estrogenic activity in human MCF7 cells transfected with luciferase gene under control of estrogen response elements cotransfected with beta-galactosidase assessed as reduction in 17beta-estradiol induced ERalpha protein expression by measuring reduction in luciferase activity measured after 24 hrs; assay type: functional, cell-based; details: dose 1.7-20 µM
MCF7 [7] = experiment: Induction of cell death in human MCF7 cells assessed as reduction in Bcl-2 protein expression measured after 48 hrs by immunoblot analysis; assay type: functional, cell-based; details: dose 1.7-15 µM
Cytochrome P450 7A1 = Cytochrome P450 7A1 (Homo sapiens, UniProt P22680); experiment: Binding affinity to recombinant human CYP7A1 by spectrophotometric titration method; assay type: ADME; details: recombinant enzyme
Sequence of Cytochrome P450 7A1 (P22680 whole entry): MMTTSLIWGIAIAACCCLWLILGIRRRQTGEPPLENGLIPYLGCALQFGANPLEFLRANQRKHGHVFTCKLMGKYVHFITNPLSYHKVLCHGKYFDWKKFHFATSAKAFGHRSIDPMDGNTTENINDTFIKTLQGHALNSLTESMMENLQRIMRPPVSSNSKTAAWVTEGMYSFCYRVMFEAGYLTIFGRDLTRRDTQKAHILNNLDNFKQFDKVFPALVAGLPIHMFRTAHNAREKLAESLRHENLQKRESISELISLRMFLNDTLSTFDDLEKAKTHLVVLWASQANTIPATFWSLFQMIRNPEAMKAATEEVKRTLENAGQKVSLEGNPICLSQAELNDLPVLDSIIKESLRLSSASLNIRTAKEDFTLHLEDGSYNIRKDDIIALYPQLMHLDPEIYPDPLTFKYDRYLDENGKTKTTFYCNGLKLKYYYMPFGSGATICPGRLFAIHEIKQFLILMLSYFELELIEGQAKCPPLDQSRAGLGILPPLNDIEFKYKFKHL

MCF7 [8] = experiment: Downregulation of cyclin D1 protein expression in human MCF7 cells at 1.7 to 15 uM measured after 48 hrs by immunoblot analysis; assay type: functional, cell-based; details: dose 1.7-15 µM
[9] = molecular target: T4, Steroid 17-alpha-hydroxylase/17,20 lyase (Homo sapiens, UniProt P05093); experiment: Binding affinity to recombinant human CYP17A1 by spectrophotometric titration method; assay type: ADME; details: recombinant enzyme
T4 sequence (P05093 whole entry): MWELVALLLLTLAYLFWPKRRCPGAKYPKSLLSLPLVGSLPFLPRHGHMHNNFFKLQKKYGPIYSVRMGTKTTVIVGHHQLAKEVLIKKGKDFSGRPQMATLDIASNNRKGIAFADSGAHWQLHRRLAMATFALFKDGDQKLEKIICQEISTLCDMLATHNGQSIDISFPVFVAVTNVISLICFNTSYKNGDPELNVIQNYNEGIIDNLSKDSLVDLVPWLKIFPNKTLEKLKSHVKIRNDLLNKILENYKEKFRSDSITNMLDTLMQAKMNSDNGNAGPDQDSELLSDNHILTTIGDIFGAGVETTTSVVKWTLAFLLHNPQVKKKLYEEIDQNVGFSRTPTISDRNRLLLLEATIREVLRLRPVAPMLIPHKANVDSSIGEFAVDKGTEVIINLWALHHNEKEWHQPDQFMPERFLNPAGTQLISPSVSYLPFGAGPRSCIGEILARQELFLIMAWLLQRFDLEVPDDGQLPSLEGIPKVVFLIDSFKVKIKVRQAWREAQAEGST

MCF7 [10] = experiment: Effect on E-cadherin protein expression in human MCF7 cells at 1.7 to 15 uM measured after 48 hrs by immunoblot analysis; assay type: functional, cell-based; details: dose 1.7-15 µM
MCF7 [11] = experiment: Anti-estrogenic activity in human MCF7 cells assessed as reduction in ERalpha protein expression at 1.7 to 15 uM measured after 48 hrs by immunoblot analysis; assay type: functional, cell-based; details: dose 1.7-15 µM
[12] = Cytotoxicity against human THP-1 cells assessed as inhibition of cell growth incubated for 72 hrs by MTT assay; assay type: toxicity, cell-based

Row | SMILES | IC50 (MDA-MB-231) [µM] | IC50 (MCF7 [1]) [µM] | further results
1 | CC(=O)O[C@H]1CC[C@@]2(C)C(=CC[C@@H]3[C@@H]2CC[C@]2(C)c4c(cnnc4P(=O)(c4ccccc4)c4ccccc4)C[C@@H]32)C1 | 17.7 | 14 | 
2 | COc1ccc2c(c1)CC[C@@H]1[C@@H]2CC[C@]2(C)c3c(cnnc3P(=O)(c3ccccc3)c3ccccc3)C[C@@H]12 | 13.5 | 8.6 | 
3 | CC(C)(C)NP(=O)(NC(C)(C)C)c1nncc2c1[C@@]1(C)CC[C@H]3[C@@H](CCC4=CC(=O)CC[C@@]43C)[C@@H]1C2 | 20.7 | 18.6 | 
4 | CC(C)(C)NP(=O)(NC(C)(C)C)c1nncc2c1[C@@]1(C)CC[C@@H]3c4ccc(O)cc4CC[C@H]3[C@@H]1C2 | > 25 | 22.6 | 
5 | C[C@]12CC[C@@H]3c4ccc(O)cc4CC[C@H]3[C@@H]1Cc1cnnc(P(=O)(Nc3ccccc3)Nc3ccccc3)c12 | > 25 | > 25 | 
6 | CC(C)(C)NP(=O)(NC(C)(C)C)c1nncc2c1[C@@]1(C)CC[C@H]3[C@@H](CC=C4C[C@@H](O)CC[C@@]43C)[C@@H]1C2 | > 25 | 24.7 | 
7 | C[C@]12CC[C@H]3[C@@H](CCC4Cc5c(cnnc5P(=O)(c5ccccc5)c5ccccc5)C[C@@]43C)[C@@H]1CC[C@@H]2O (stereo partly drawn) | 8.9 | 7.1 | 
8 | COc1ccc2c(c1)CC[C@@H]1[C@@H]2CC[C@]2(C)c3c(cnnc3P(=O)(Nc3ccccc3)Nc3ccccc3)C[C@@H]12 | > 25 | > 25 | 
9 | COc1ccc2c(c1)CC[C@@H]1[C@@H]2CC[C@]2(C)c3c(cnnc3P(=O)(NC(C)(C)C)NC(C)(C)C)C[C@@H]12 | 16.7 | 12.7 | 
10 | CC(C)(C)NP(=O)(NC(C)(C)C)c1nncc2c1[C@@]1(C)CC[C@H]3[C@@H](CC[C@H]4C[C@@H](O)CC[C@@]43C)[C@@H]1C2 | > 25 | > 25 | 
11 | C[C@]12CCC(Cl)CC1=CC[C@@H]1[C@@H]2CC[C@]2(C)c3c(cnnc3P(=O)(Nc3ccccc3)Nc3ccccc3)C[C@@H]12 (stereo partly drawn) | > 25 | > 25 | 
12 | CC/C(=C(\c1ccc(O)cc1)c1ccc(OCCN(C)C)cc1)c1ccccc1 [AFIMOXIFENE] |  | 5.2 | 
13 | CC(=O)O[C@H]1CC[C@@]2(C)C(=CC[C@@H]3[C@@H]2CC[C@]2(C)c4c(cnnc4P(=O)(NC(C)(C)C)NC(C)(C)C)C[C@@H]32)C1 | > 25 | 16.4 | 
14 | CC(C)(C)NP(=O)(NC(C)(C)C)c1nncc2c1[C@@]1(C)CC[C@H]3[C@@H](CC=C4CC(Cl)CC[C@@]43C)[C@@H]1C2 (stereo partly drawn) | 15.5 | 11.1 | 
15 | C[C@]12CC[C@H](O)C[C@@H]1CC[C@@H]1[C@@H]2CC[C@]2(C)c3c(cnnc3P(=O)(Nc3ccccc3)Nc3ccccc3)C[C@@H]12 | > 25 | 17 | 
16 | CC(=O)O[C@H]1CC[C@@]2(C)C(=CC[C@@H]3[C@@H]2CC[C@]2(C)c4c(cnnc4P(=O)(Nc4ccccc4)Nc4ccccc4)C[C@@H]32)C1 | > 25 | > 25 | 
17 | C[C@]12CCC(=O)C=C1CC[C@@H]1[C@@H]2CC[C@]2(C)c3c(cnnc3P(=O)(c3ccccc3)c3ccccc3)C[C@@H]12 | 18.1 | 6.5 | Activity (Aromatase): Not Active; Activity (Cytochrome P450 7B1): Not Active; Activity (MCF7 [2]): inactive; Activity (MCF7 [3]): Active; Activity (MCF7 [4]): inactive; Activity (MCF7 [5]): Active; Activity (Steroid 21-hydroxylase): Not Active; Activity (MCF7 [6]): Dose-Dependent Effect; Activity (MCF7 [7]): Dose-Dependent Effect; Activity (Cytochrome P450 7A1): Not Active; Activity (MCF7 [8]): Active; Activity [9]: Not Active; Activity (MCF7 [10]): inactive; Activity (MCF7 [11]): Active
18 | COc1cccc2c1C(=O)c1c(O)c3c(c(O)c1C2=O)C[C@@](O)(C(=O)CO)C[C@@H]3O[C@H]1C[C@H](N)[C@H](O)[C@H](C)O1 [DOXORUBICIN] | 0.27 | 0.28 | IC50 at 72 h [12]: 0.045 µM
19 | C[C@]12CC[C@H]3[C@@H](CCC4Cc5c(cnnc5P(=O)(Nc5ccccc5)Nc5ccccc5)C[C@@]43C)[C@@H]1CC[C@@H]2O (stereo partly drawn) | 16.5 | 9.3 | 
20 | C[C@]12CC[C@H](O)CC1=CC[C@@H]1[C@@H]2CC[C@]2(C)c3c(cnnc3P(=O)(c3ccccc3)c3ccccc3)C[C@@H]12 | 7.4 | 17.5 | 
21 | C[C@]12CC[C@H](O)CC1=CC[C@@H]1[C@@H]2CC[C@]2(C)c3c(cnnc3P(=O)(Nc3ccccc3)Nc3ccccc3)C[C@@H]12 | > 25 | 18.5 | 
22 | C[C@]12CC[C@@H]3c4ccc(O)cc4CC[C@H]3[C@@H]1Cc1cnnc(P(=O)(c3ccccc3)c3ccccc3)c12 | > 25 | > 25 | 
